The record followed here is patent US8791046B2, “Crystalline modification of fipronil” (BASF SE, priority 2006, dated 2014).

Data set [1] is described as follows: Stability of the acetone solvate crystal form at ambient conditions. The data set is classed as physicochemical. The following applies: co-crystallized acetone solvent is volatile at ambient conditions.
Data set [2] can be described thus: Solubility and dissolution rate in solvents. It is filed as physicochemical. To be noted: in most solvents.

Regarding fipronil [crystalline modification IV], the “stability of the crystalline modification” value in data set [1] is “remarkable stability”. Also, in data set [2], the dissolution rate entry is “remarkable high” and the solubility result is “remarkable high”.
